Tests used:
plasma kallikrein = biological target: T1, plasma kallikrein (Homo sapiens, UniProt P03952); assay: Neat human plasma assay: contact pathway-activated (FXIIa) plasma, PFR-AMC substrate; type: biochemical; details: citrated human plasma (78% final), 10 nM human FXIIa, 100 μM PFR-AMC, room temperature
T1 construct: from tissue; host or cells: sodium citrate collected human plasma (78% final)
Experimental: To analyze inhibition of plasma kallikrein in an ex vivo setting, the potency of compounds was measure in contact pathway-activated plasma assays. In a fluorogenic peptide substrate assay, test compounds dissolved in DMSO were added to sodium citrate collected human or rat plasma in a 96-well microplate. Alternatively, citrated plasma was collected from rats administered the compounds orally or by IV. 10 nM of human FXIIa (Enzyme Research Laboratories) diluted in pKal buffer (20 mM Tris-HCl, pH 7.5, 150 mM NaCl, 1 mM EDTA, 0.1% PEG-8000, and 0.1% Triton X-100) was added to the plasma, followed by the 100 μM of the profluorescent, synthetic plasma kallikrein substrate PFR-AMC (also diluted in pKal buffer). Final plasma concentration in the reaction was 78%. Fluorescence was immediately monitored by excitation/emission wavelengths of 360 nm/480 nm respectively over a period of 5 minutes in a microplate reader. The resulting linear increase in fluorescence emission (reflecting pKal proteolysis of PFR-AMC substrate) was fit to extract a proteolytic rate (fluorescent units over time), and this rate was subsequently plotted against compound inhibitor concentration. Resulting plots were fit to a standard 4-parameter IC50/IC90 equation to determine min/max values, IC50/90, and slope. All experimental steps were performed at room temperature.

[1] = biological target: human activated kallikrein enzyme (Homo sapiens, UniProt P03952); assay: Inhibition of activated plasma kallikrein, fluorogenic peptide substrate (PFR-AMC) assay, 500 pM enzyme format; type: biochemical; details: 500 pM activated kallikrein, 300 uM PFR-AMC, 30 min preincubation, 10 min reaction, room temperature; read-out: Primary Dose Response Assay: Average EC50
Outline: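 500 pM enzyme preincubated 30 min at room temperature with inhibitor in 20 mM Tris pH 7.5, 150 mM NaCl, 1 mM EDTA, 0.1% PEG-400, 0.1% Triton X-100. Reaction started with 300 uM PFR-AMC and run 10 min at room temperature. Fluorescence read at 380 nm excitation/460 nm emission.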

T1 sequence (P03952 391-638 limits assumed): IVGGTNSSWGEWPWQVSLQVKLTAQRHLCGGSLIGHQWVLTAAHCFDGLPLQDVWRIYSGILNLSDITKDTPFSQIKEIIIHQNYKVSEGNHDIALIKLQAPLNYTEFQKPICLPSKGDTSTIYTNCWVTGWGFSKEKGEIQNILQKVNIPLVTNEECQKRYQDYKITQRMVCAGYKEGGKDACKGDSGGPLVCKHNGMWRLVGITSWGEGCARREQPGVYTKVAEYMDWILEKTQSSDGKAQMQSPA
T1 sequence (P03952 20-390 partner limits assumed): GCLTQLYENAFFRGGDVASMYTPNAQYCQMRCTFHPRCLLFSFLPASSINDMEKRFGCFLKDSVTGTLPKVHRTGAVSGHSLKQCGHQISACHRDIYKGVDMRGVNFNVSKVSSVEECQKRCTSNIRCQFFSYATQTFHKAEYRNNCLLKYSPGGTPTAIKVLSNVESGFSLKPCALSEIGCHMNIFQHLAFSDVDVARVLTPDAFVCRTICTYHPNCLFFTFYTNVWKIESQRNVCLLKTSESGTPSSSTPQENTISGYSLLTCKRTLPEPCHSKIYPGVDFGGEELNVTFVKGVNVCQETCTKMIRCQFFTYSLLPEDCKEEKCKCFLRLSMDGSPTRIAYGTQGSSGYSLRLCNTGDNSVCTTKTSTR
Sequence of human activated kallikrein enzyme (P03952 391-638 limits assumed): as the sequence (P03952 391-638 limits assumed) above
Sequence of human activated kallikrein enzyme (P03952 20-390 partner limits assumed): as the sequence (P03952 20-390 partner limits assumed) above

| Structure (SMILES) | IC90 (plasma kallikrein) | EC50 [1] |
| --- | --- | --- |
| Cc1ccnc([C@H]2C[C@@H]2c2cc(O)c3ccc(N4C[C@@H](O)C[C@@H]4c4cn5cc(C6CC6)ccc5n4)cc3n2)n1 (relative stereo) [Example 54, rac-7-((2R,4S)-2-(6-cyclopropylimidazo[1,2-a]pyridin-2-yl)-4-hydroxypyrrolidin-1-yl)-2-((1S*,2S*)-2-(4-methylpyrimidin-2-yl)cyclopropyl)quinolin-4-ol] | 1500 to 10000 nM | 1 to 10 nM |
| Cc1ccnc([C@H]2C[C@@H]2c2ccc3ccc(NCc4cn5cc(C6CC6)cc(N6CC(=O)NC6=O)c5n4)cc3n2)n1 (racemic) [Example 81, rac-1-(6-cyclopropyl-2-(((2-((1S*,2S*)-2-(4-methylpyrimidin-2-yl)cyclopropyl)quinolin-7-yl)amino)methyl)imidazo[1,2-a]pyridin-8-yl)imidazolidine-2,4-dione] | 1500 to 10000 nM | ≤ 1 nM |
| Cc1ccnc([C@H]2C[C@@H]2c2ncc3ccc(NCc4cn5cc(C6CC6)cc(N6CC(=O)N(C)C6=O)c5n4)cc3n2)n1 (racemic) [Example 60, rac-1-(6-cyclopropyl-2-(((2-((1S*,2S*)-2-(4-methylpyrimidin-2-yl)cyclopropyl)quinazolin-7-yl)amino)methyl)imidazo[1,2-a]pyridin-8-yl)-3-methylimidazolidine-2,4-dione] | 10000 to 22000 nM | 1 to 10 nM |
| Cc1ccnc(C2CC2c2cc(=O)c3ccc(NCc4cn5cc(C6CC6)cc(N6CC(=O)N(C)C6=O)c5n4)cc3[nH]2)n1 (single isomer, unassigned) [Example 13, 1-(6-cyclopropyl-2-(((2-(2-(4-methylpyrimidin-2-yl)cyclopropyl)-4-oxo-1,4-dihydroquinolin-7-yl)amino)methyl)imidazo[1,2-a]pyridin-8-yl)-3-methylimidazolidine-2,4-dione] | ≤ 400 nM | 1 to 10 nM |
| COCc1cc(NCc2cn3cc(C4CC4)cc(N4CC(=O)N(C)C4=O)c3n2)cc2nc([C@H]3C[C@@H]3c3nccc(C)n3)ccc12 (racemic) [Example 75, rac-1-(6-cyclopropyl-2-(((5-(methoxymethyl)-2-((1S*,2S*)-2-(4-methylpyrimidin-2-yl)cyclopropyl)quinolin-7-yl)amino)methyl)imidazo[1,2-a]pyridin-8-yl)-3-methylimidazolidine-2,4-dione] | 400 to 1500 nM | ≤ 1 nM |
| Cc1ccnc([C@H]2C[C@@H]2c2ccc3c(C#N)cc(NCc4cn5cc(C6CC6)cc(N6CC(=O)N(C)C6=O)c5n4)cc3n2)n1 (racemic) [Example 82, rac-7-(((6-cyclopropyl-8-(3-methyl-2,4-dioxoimidazolidin-1-yl)imidazo[1,2-a]pyridin-2-yl)methyl)amino)-2-((1S*,2S*)-2-(4-methylpyrimidin-2-yl)cyclopropyl)quinoline-5-carbonitrile] | 1500 to 10000 nM | 1 to 10 nM |
| Cc1ccnc([C@H]2C[C@@H]2c2cc(N(C)CC(C)(C)O)c3ccc(NCc4cn5cc(C6CC6)cc(N6CC(=O)N(C)C6=O)c5n4)cc3n2)n1 [Example 100, 1-(6-cyclopropyl-2-(((4-((2-hydroxy-2-methylpropyl)(methyl)amino)-2-((1S,2S)-2-(4-methylpyrimidin-2-yl)cyclopropyl)quinolin-7-yl)amino)methyl)imidazo[1,2-a]pyridin-8-yl)-3-methylimidazolidine-2,4-dione] | ≤ 400 nM | ≤ 1 nM |
| Cc1ccnc([C@H]2C[C@@H]2c2ccc3ccc(N4C[C@@H](O)C[C@@H]4c4cn5cc(C6CC6)cc(N6CC(=O)N(C)C6=O)c5n4)cc3n2)n1 (relative stereo) [Example 68, rac-1-(6-cyclopropyl-2-((2R,4S)-4-hydroxy-1-(2-((1S*,2S*)-2-(4-methylpyrimidin-2-yl)cyclopropyl)quinolin-7-yl)pyrrolidin-2-yl)imidazo[1,2-a]pyridin-8-yl)-3-methylimidazolidine-2,4-dione] | 1500 to 10000 nM | 1 to 10 nM |

Reference: patent US20240199613A1 (TAKEDA PHARMACEUTICAL COMPANY LIMITED, priority 2021, published 2024)
